Results taken from PubChem BioAssay (NCI).
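Briefly, cells in 96-well plates were exposed to five compound concentrations for 48 h, and endpoints were estimated by linear interpolation. TGI marks complete inhibition of growth.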

Legend:
Experiment in all cases: NCI-60 cell line screen, 48 h
KM12 colon = test system: KM12 colon
TK-10 renal = test system: TK-10 renal
OVCAR-3 ovarian = test system: OVCAR-3 ovarian
ACHN renal = test system: ACHN renal
SN12C renal = test system: SN12C renal
SW-620 colon = test system: SW-620 colon
CAKI-1 renal = test system: CAKI-1 renal
T-47D breast = test system: T-47D breast
A549 NSCLC = test system: A549 NSCLC
NCI/ADR-RES ovarian = test system: NCI/ADR-RES ovarian
SR leukemia = test system: SR leukemia
NCI-H460 lung = test system: NCI-H460 lung
M14 melanoma = test system: M14 melanoma
U251 CNS = test system: U251 CNS
SK-MEL-28 melanoma = test system: SK-MEL-28 melanoma
RPMI-8226 leukemia = test system: RPMI-8226 leukemia
OVCAR-5 ovarian = test system: OVCAR-5 ovarian
HS 578T breast = test system: HS 578T breast
PC-3 prostate = test system: PC-3 prostate
OVCAR-8 ovarian = test system: OVCAR-8 ovarian
SF-268 CNS = test system: SF-268 CNS
NCI-H522 lung = test system: NCI-H522 lung
SK-OV-3 ovarian = test system: SK-OV-3 ovarian
HOP-92 NSCLC = test system: HOP-92 NSCLC
UACC-62 melanoma = test system: UACC-62 melanoma
LOX IMVI melanoma = test system: LOX IMVI melanoma
K-562 leukemia = test system: K-562 leukemia
MCF7 breast = test system: MCF7 breast
786-0 renal = test system: 786-0 renal
SNB-75 CNS = test system: SNB-75 CNS
CCRF-CEM leukemia = test system: CCRF-CEM leukemia
MDA-MB-231 breast = test system: MDA-MB-231 breast
MOLT-4 leukemia = test system: MOLT-4 leukemia
UO-31 renal = test system: UO-31 renal
MDA-N = test system: MDA-N
BT-549 breast = test system: BT-549 breast
SF-295 CNS = test system: SF-295 CNS
IGROV1 ovarian = test system: IGROV1 ovarian
SK-MEL-5 melanoma = test system: SK-MEL-5 melanoma
RXF 393 renal = test system: RXF 393 renal
COLO 205 colon = test system: COLO 205 colon
HOP-62 NSCLC = test system: HOP-62 NSCLC
EKVX NSCLC = test system: EKVX NSCLC
MDA-MB-435 = test system: MDA-MB-435
HCT-15 colon = test system: HCT-15 colon
HT29 colon = test system: HT29 colon
A498 renal = test system: A498 renal
NCI-H226 lung = test system: NCI-H226 lung
OVCAR-4 ovarian = test system: OVCAR-4 ovarian
UACC-257 melanoma = test system: UACC-257 melanoma
SK-MEL-2 melanoma = test system: SK-MEL-2 melanoma
HCT-116 colon = test system: HCT-116 colon
HL-60(TB) leukemia = test system: HL-60(TB) leukemia
HCC-2998 colon = test system: HCC-2998 colon
SNB-19 CNS = test system: SNB-19 CNS
NCI-H23 lung = test system: NCI-H23 lung
DU-145 prostate = test system: DU-145 prostate
MALME-3M melanoma = test system: MALME-3M melanoma
SF-539 CNS = test system: SF-539 CNS

Structure (SMILES): Cc1nn2c(=O)c([N+](=O)[O-])c(/C=C/c3ccccc3)nc2s1
- TGI (KM12 colon): 11 µM
- TGI (TK-10 renal): 41.3 µM
- TGI (OVCAR-3 ovarian): 26.5 µM
- TGI (ACHN renal): 74.9 µM
- TGI (SN12C renal): > 100 µM
- TGI (SW-620 colon): > 51.4 µM
- TGI (CAKI-1 renal): > 100 µM
- TGI (T-47D breast): > 100 µM
- TGI (A549 NSCLC): > 79.1 µM
- TGI (NCI/ADR-RES ovarian): > 53 µM
- TGI (SR leukemia): 6.52 µM
- TGI (NCI-H460 lung): 29 µM
- TGI (M14 melanoma): > 53.9 µM
- TGI (U251 CNS): 7.99 µM
- TGI (SK-MEL-28 melanoma): 64.2 µM
- TGI (RPMI-8226 leukemia): 6.84 µM
- TGI (OVCAR-5 ovarian): > 100 µM
- TGI (HS 578T breast): > 100 µM
- TGI (PC-3 prostate): > 100 µM
- TGI (OVCAR-8 ovarian): 5.26 µM
- TGI (SF-268 CNS): > 100 µM
- TGI (NCI-H522 lung): 12 µM
- TGI (SK-OV-3 ovarian): > 40.5 µM
- TGI (HOP-92 NSCLC): > 100 µM
- TGI (UACC-62 melanoma): 26.9 µM
- TGI (LOX IMVI melanoma): 3.98 µM
- TGI (K-562 leukemia): > 26.7 µM
- TGI (MCF7 breast): 8.86 µM
- TGI (786-0 renal): > 100 µM
- TGI (SNB-75 CNS): 20.3 µM
- TGI (CCRF-CEM leukemia): 7.65 µM
- TGI (MDA-MB-231 breast): > 100 µM
- TGI (MOLT-4 leukemia): 20.8 µM
- TGI (UO-31 renal): > 54 µM
- TGI (MDA-N): 6.72 µM
- TGI (BT-549 breast): 7.86 µM
- TGI (SF-295 CNS): > 100 µM
- TGI (IGROV1 ovarian): > 67.8 µM
- TGI (SK-MEL-5 melanoma): 11.2 µM
- TGI (RXF 393 renal): 7.32 µM
- TGI (COLO 205 colon): 28.8 µM
- TGI (HOP-62 NSCLC): > 72 µM
- TGI (EKVX NSCLC): > 29.8 µM
- TGI (MDA-MB-435): 5.06 µM
- TGI (HCT-15 colon): 12.3 µM
- TGI (HT29 colon): 7.83 µM
- TGI (A498 renal): 59 µM
- TGI (NCI-H226 lung): 21.1 µM
- TGI (OVCAR-4 ovarian): > 100 µM
- TGI (UACC-257 melanoma): > 100 µM
- TGI (SK-MEL-2 melanoma): 12.4 µM
- TGI (HCT-116 colon): 15.4 µM
- TGI (HL-60(TB) leukemia): 5.61 µM
- TGI (HCC-2998 colon): 43.1 µM
- TGI (SNB-19 CNS): > 90.8 µM
- TGI (NCI-H23 lung): > 100 µM
- TGI (DU-145 prostate): > 100 µM
- TGI (MALME-3M melanoma): > 71.7 µM
- TGI (SF-539 CNS): 5.89 µM

Structure (SMILES): CCCCc1ccc(Nc2nc(Cl)c3c(ncn3COCCOC(C)=O)n2)cc1
- TGI (KM12 colon): 37.5 µM
- TGI (TK-10 renal): 41.8 µM
- TGI (OVCAR-3 ovarian): 43.8 µM
- TGI (ACHN renal): 35.8 µM
- TGI (SN12C renal): 34.8 µM
- TGI (SW-620 colon): 41.4 µM
- TGI (CAKI-1 renal): 60.1 µM
- TGI (T-47D breast): 34.6 µM
- TGI (A549 NSCLC): 41 µM
- TGI (NCI/ADR-RES ovarian): 41.2 µM
- TGI (SR leukemia): 47.3 µM
- TGI (NCI-H460 lung): 34.4 µM
- TGI (M14 melanoma): 34 µM
- TGI (U251 CNS): 43.1 µM
- TGI (RPMI-8226 leukemia): > 100 µM
- TGI (OVCAR-5 ovarian): 37.5 µM
- TGI (HS 578T breast): 55.2 µM
- TGI (PC-3 prostate): 37.4 µM
- TGI (OVCAR-8 ovarian): 33.6 µM
- TGI (SF-268 CNS): 38.5 µM
- TGI (NCI-H522 lung): 33.4 µM
- TGI (SK-OV-3 ovarian): 42.9 µM
- TGI (HOP-92 NSCLC): 43.6 µM
- TGI (UACC-62 melanoma): 31.1 µM
- TGI (LOX IMVI melanoma): 34 µM
- TGI (K-562 leukemia): 51.8 µM
- TGI (MCF7 breast): 49.1 µM
- TGI (786-0 renal): 36.9 µM
- TGI (SNB-75 CNS): 16.5 µM
- TGI (CCRF-CEM leukemia): 60.7 µM
- TGI (MDA-MB-231 breast): 33.4 µM
- TGI (MOLT-4 leukemia): 42.5 µM
- TGI (UO-31 renal): 33.7 µM
- TGI (MDA-N): 34.4 µM
- TGI (BT-549 breast): 31.4 µM
- TGI (SF-295 CNS): 28.2 µM
- TGI (IGROV1 ovarian): 40.2 µM
- TGI (SK-MEL-5 melanoma): 36.2 µM
- TGI (RXF 393 renal): 28.4 µM
- TGI (COLO 205 colon): 45.5 µM
- TGI (HOP-62 NSCLC): 31.5 µM
- TGI (EKVX NSCLC): 37.1 µM
- TGI (MDA-MB-435): 32.9 µM
- TGI (HCT-15 colon): 30.7 µM
- TGI (HT29 colon): 34.9 µM
- TGI (A498 renal): 38.8 µM
- TGI (NCI-H226 lung): 40.6 µM
- TGI (OVCAR-4 ovarian): 66.6 µM
- TGI (UACC-257 melanoma): 31.4 µM
- TGI (SK-MEL-2 melanoma): 39.2 µM
- TGI (HCT-116 colon): 31.3 µM
- TGI (HL-60(TB) leukemia): 49.9 µM
- TGI (HCC-2998 colon): 34.3 µM
- TGI (SNB-19 CNS): 46.1 µM
- TGI (NCI-H23 lung): 35.6 µM
- TGI (DU-145 prostate): 30.5 µM
- TGI (MALME-3M melanoma): 36.9 µM
- TGI (SF-539 CNS): 53.4 µM
